We go through 31 compounds from US20240197682A1, “METHOD FOR TREATING NEUROLOGICAL DISEASES USING SUPRAMOLECULE POLYMER THERAPEUTICS” (The Regents of the University of California, priority 2022, published 2024).

The structures appear in SMILES notation. Read-outs that look alike come from different tables or passages of the source.

Usually Papp stands for the rate of passage across a membrane or cell layer, normalised by area and donor concentration.

The nature of the series: Parallel Artificial Membrane Permeability Assay (PAMPA). Type of series: in vitro ADME. To be noted: for PAMPA: P_app: 200 uM test compound, 4 hr; for Papp at 4 hr, 200 uM: PAMPA, read-out: PAMPA: P_app. As for the experimental part: 5 uL of 1% lecithin (VWR 0579) dissolved in n-dodecane (Sigma Aldrich D221104) was applied to each well of a MultiScreen IP PAMPA filter plate (Millipore MAIPSWU10) and allowed to equilibrate for 5 minutes. 300 uL of PBS was added to the acceptor plate and 150 uL of 200 uM test compound dissolved in PBS and 30% ethanol was added to the donor wells before incubating the donor plate in the acceptor plate for 4 hr at 500 rpm. 100 uL was sampled from the donor and acceptor wells and the concentrations were measured by liquid chromatography-mass spectrometry (SCIEX 4500) or UV-VIS plate reader (BMG).
A general note: In PAMPA a lipid-coated filter parts donor from acceptor wells.

For `CNC(=O)c1cc2c(-c3ccccc3)nn(-c3ccc(F)cc3)c2o1` [Compound 292], the “PAMPA: P_app” value reads like this: (pH 5.0) 7.9 ×10e−6 cm/sec; (pH 7.4) 13.5 ×10e−6 cm/sec. In the case of `CNc1nc(=O)n(-c2nc(-c3cccc(Cl)c3)oc2-c2ccc(Cl)c(F)c2)cc1F` [Compound 1], the “PAMPA: P_app” value is reported as greater than 50.0 ×10e−6 cm/sec (pH 5.0) and greater than 50.0 ×10e−6 cm/sec (pH 7.4). As to `O=c1nc2c(ccn2C(F)(F)F)cn1-c1nc(N2CC(F)C2)oc1-c1ccc(F)cc1` [Compound 239], the “PAMPA: P_app” value (pH 7.4) was found to be 0.664 ×10e−6 cm/sec. Turning to `CC(=O)Nc1ncc2c(-c3ccc(F)cc3)nn(Cc3ccccc3)c2n1` [Compound 263, N-(1-benzyl-3-(4-fluorophenyl)-1H-pyrazolo[3,4-d]pyrimidin-6-yl)acetamide], the Papp at 4 hr, 200 uM reads like this: (pH 5.0, 200 uM test compound) 17.9 ×10⁻⁶ cm/s; (pH 7.4, 200 uM test compound) 20.7 ×10⁻⁶ cm/s. The matching figures for `O=c1nc2c(ccn2C2CC2)cn1-c1nc(-c2ccc(F)cc2)oc1-c1ccccc1` [Compound 213, 7-cyclopropyl-3-(2-(4-fluorophenyl)-5-phenyloxazol-4-yl)-3,7-dihydro-2H-pyrrolo[2,3-d]pyrimidin-2-one]: 36 ×10⁻⁶ cm/s and 48 ×10⁻⁶ cm/s.

On to `O=c1nc2c(ccn2C(F)(F)F)cn1-c1nc(N2CCCC2)oc1-c1ccc(F)cc1` [Compound 238, 3-[5-(4-fluorophenyl)-2-(pyrrolidin-1-yl)-1,3-oxazol-4-yl]-7-(trifluoromethyl)-2H,3H,7H-pyrrolo[2,3-d]pyrimidin-2-one], for which, for the setting “pH 7.4, 200 uM test compound”, the Papp at 4 hr, 200 uM stood at 2.28 ×10⁻⁶ cm/s.

As to `CCn1nc(-c2ccccc2)c2cnc(NC(C)=O)nc21` [Compound 277], the “PAMPA: P_app” value is greater than 50 ×10e−6 cm/sec (pH 5.0) and greater than 50 ×10e−6 cm/sec (pH 7.4).

Consider `CNC(=O)c1cc2c(NC(=O)C3CC3)nn(-c3ccccc3)c2s1` [Compound 3, 3-(cyclopropanecarboxamido)-N-methyl-1-phenyl-1H-thieno[2,3-c]pyrazole-5-carboxamide], for which the Papp at 4 hr, 200 uM (pH 5.0, 200 uM test compound) was greater than 50 ×10⁻⁶ cm/s. Further, the “PAMPA: P_app” value (pH 7.4) was greater than 50.0 ×10e−6 cm/sec. Regarding `CNC(=O)c1ncc2c(-c3cc(F)cc(F)c3)nn(Cc3ccccc3)c2n1` [Compound 252], the “PAMPA: P_app” value (pH 5.0) is greater than 50 ×10e−6 cm/sec and the “PAMPA: P_app” value (pH 7.4) was greater than 50 ×10e−6 cm/sec. As for `Cc1cn(-c2nc(-c3ccccc3)oc2-c2ccccc2)c(=O)nc1OCCO` [Compound 77, 1-(2,5-diphenyl-1,3-oxazol-4-yl)-4-(2-hydroxyethoxy)-5-methyl-1,2-dihydropyrimidin-2-one], the Papp at 4 hr, 200 uM (pH 5.0, 200 uM test compound) is greater than 50 ×10⁻⁶ cm/s. Moreover, under “pH 7.4”, the “PAMPA: P_app” value is on record as greater than 50.0 ×10e−6 cm/sec. Turning to `O=c1nc2c(ccn2C2CC2)cn1-c1nc(-c2ccnc(C3CC3)n2)oc1-c1ccc(F)cc1` [Compound 216, 7-cyclopropyl-3-[2-(2-cyclopropylpyrimidin-4-yl)-5-(4-fluorophenyl)-1,3-oxazol-4-yl]-2H,3H,7H-pyrrolo[2,3-d]pyrimidin-2-one], the Papp at 4 hr, 200 uM (pH 7.4, 200 uM test compound) was found to be 1.63 ×10⁻⁶ cm/s. With `CC(=O)Nc1ncc2c(-c3ccccc3)nn(-c3cccnc3)c2n1` [Compound 276, N-(3-phenyl-1-(pyridin-3-yl)-1H-pyrazolo[3,4-d]pyrimidin-6-yl)acetamide], the Papp at 4 hr, 200 uM (pH 5.0, 200 uM test compound) was greater than 50 ×10⁻⁶ cm/s. For the same compound, the “PAMPA: P_app” value (pH 7.4) was greater than 50 ×10e−6 cm/sec. Take `CNC(=O)c1cc2c(-c3ccccc3)nn(-c3ccccc3)c2o1` [Compound 38, N-methyl-1,3-diphenyl-1H-furo[2,3-c]pyrazole-5-carboxamide]: the Papp at 4 hr, 200 uM is, setting by setting: (pH 5.0, 200 uM test compound) 46.1 ×10⁻⁶ cm/s; (pH 7.4, 200 uM test compound) greater than 50 ×10⁻⁶ cm/s.

Take `c1ccc(Cn2nc(-c3ccccc3)c3cnc(-c4cnn[nH]4)nc32)cc1` [Compound 284, 1-benzyl-3-phenyl-6-(1H-1,2,3-triazol-5-yl)-1H-pyrazolo[3,4-d]pyrimidine]: the Papp at 4 hr, 200 uM (pH 5.0, 200 uM test compound) is greater than 50 ×10⁻⁶ cm/s. Further, the “PAMPA: P_app” value (pH 7.4) is on record as greater than 50 ×10e−6 cm/sec. On to `COC(=O)c1cc2c(-c3ccccc3)nn(-c3ccccc3)c2[nH]1` [Compound 34, methyl 1,3-diphenyl-1,6-dihydropyrrolo[2,3-c]pyrazole-5-carboxylate], for which the Papp at 4 hr, 200 uM came out at 24.4 ×10⁻⁶ cm/s (pH 5.0, 200 uM test compound) and 14.3 ×10⁻⁶ cm/s (pH 7.4, 200 uM test compound). On to `O=c1nc2c(ccn2C2CC2)cn1-c1nc(-c2cnc(C3CC3)nc2)oc1-c1ccc(Cl)c(F)c1` [Compound 186, 3-[5-(4-chloro-3-fluorophenyl)-2-(2-cyclopropylpyrimidin-5-yl)-1,3-oxazol-4-yl]-7-cyclopropyl-2H,3H,7H-pyrrolo[2,3-d]pyrimidin-2-one], for which, where the note is “pH 7.4, 200 uM test compound”, the Papp at 4 hr, 200 uM came out at 6.27 ×10⁻⁶ cm/s. Take `CC(=O)Nc1ncc2c(-c3ccccc3)nn(Cc3ccccn3)c2n1` [Compound 278]: the “PAMPA: P_app” value (pH 5.0) was greater than 50 ×10e−6 cm/sec and the “PAMPA: P_app” value (pH 7.4) is recorded as greater than 50 ×10e−6 cm/sec. As to `CC(=O)Nc1ncc2c(-c3ccccc3)nn(-c3ccccc3)c2n1` [Compound 272, N-(1,3-diphenyl-1H-pyrazolo[3,4-d]pyrimidin-6-yl)acetamide], the Papp at 4 hr, 200 uM runs as follows: (pH 5.0, 200 uM test compound) 8.8 ×10⁻⁶ cm/s; (pH 7.4, 200 uM test compound) 8.9 ×10⁻⁶ cm/s. Take `CNC(=O)c1ncc2c(-c3ccnc(C(C)(F)F)n3)nn(-c3ccc(Cl)cc3)c2n1` [Compound 22, 1-(4-chlorophenyl)-3-(2-(1,1-difluoroethyl)pyrimidin-4-yl)-N-methyl-1H-pyrazolo[3,4-d]pyrimidine-6-carboxamide]: the Papp at 4 hr, 200 uM (pH 5.0, 200 uM test compound) was greater than 50 ×10⁻⁶ cm/s. The “PAMPA: P_app” value (pH 7.4) is greater than 50.0 ×10e−6 cm/sec.

In the case of `CC1CCc2cn(-c3nc(-c4ccccc4)oc3-c3ccc(F)cc3)c(=O)nc2O1` (centres unmarked) [Compound 92, 3-(5-(4-fluorophenyl)-2-phenyloxazol-4-yl)-7-methyl-3,5,6,7-tetrahydro-2H-pyrano[2,3-d]pyrimidin-2-one], the Papp at 4 hr, 200 uM (pH 7.4, 200 uM test compound) came to 1.46 ×10⁻⁶ cm/s. `CC(=O)Nc1ncc2c(-c3ccccc3)nn(Cc3ccccc3)c2n1` [Compound 264]: the “PAMPA: P_app” value (pH 5.0) was determined as 27.1 ×10e−6 cm/sec and the “PAMPA: P_app” value (pH 7.4) was determined as 26.4 ×10e−6 cm/sec. On to `COc1nccc2cc(-c3nc(-n4ccc5cccnc5c4=O)c(-c4ccc(C(F)(F)F)cc4)o3)ccc12` [Compound 124, 7-(2-(1-methoxyisoquinolin-6-yl)-5-(4-(trifluoromethyl)phenyl)oxazol-4-yl)-1,7-naphthyridin-8(7H)-one], for which the Papp at 4 hr, 200 uM (pH 7.4, 200 uM test compound) turned out to be 5.82 ×10⁻⁶ cm/s.

`CNC(=O)c1ncc2c(-c3ccnc(C(F)(F)F)n3)nn(-c3ccc(Cl)cc3)c2n1` [Compound 37, 1-(4-chlorophenyl)-N-methyl-3-(2-(trifluoromethyl)pyrimidin-4-yl)-1H-pyrazolo[3,4-d]pyrimidine-6-carboxamide]: the Papp at 4 hr, 200 uM (pH 5.0, 200 uM test compound) was greater than 50 ×10⁻⁶ cm/s. The “PAMPA: P_app” value (pH 7.4) is reported as greater than 50.0 ×10e−6 cm/sec. Consider `CCC(=O)Nc1ncc2c(-c3ccccc3)nn(-c3ccccc3)c2n1` [Compound 273], for which the “PAMPA: P_app” value runs as follows: (pH 5.0) 2.8 ×10e−6 cm/sec; (pH 7.4) 3.6 ×10e−6 cm/sec.

With `CNC(=O)c1ncc2c(-c3ccccc3)nn(Cc3cccc(F)c3)c2n1` [Compound 249], the “PAMPA: P_app” value by setting is: (pH 5.0) 47.1 ×10e−6 cm/sec; (pH 7.4) greater than 50 ×10e−6 cm/sec.

For `CC(=O)Nc1ncc2c(-c3ccccc3)nn(Cc3cccnc3)c2n1` [Compound 42, N-(3-phenyl-1-(pyridin-3-ylmethyl)-1H-pyrazolo[3,4-d]pyrimidin-6-yl)acetamide], the Papp at 4 hr, 200 uM (pH 5.0, 200 uM test compound) was 46.7 ×10⁻⁶ cm/s and the Papp at 4 hr, 200 uM (pH 7.4, 200 uM test compound) stood at 37 ×10⁻⁶ cm/s. Regarding `O=C(Nc1ncc2c(-c3ccccc3)nn(-c3ccccc3)c2n1)C1CC1` [Compound 275], the “PAMPA: P_app” value amounted to 0.8 ×10e−6 cm/sec (pH 5.0) and 1.3 ×10e−6 cm/sec (pH 7.4). In the case of `CNC(=O)c1cnc2c(-c3cc(F)cc(F)c3)nn(Cc3ccccc3)c2n1` [Compound 262, 1-benzyl-3-(3,5-difluorophenyl)-N-methyl-1H-pyrazolo[3,4-b]pyrazine-6-carboxamide], the Papp at 4 hr, 200 uM was found to be 1.2 ×10⁻⁶ cm/s (pH 5.0, 200 uM test compound) and 2 ×10⁻⁶ cm/s (pH 7.4, 200 uM test compound). Take `CNc1nc(=O)n(-c2nc(-c3cccc(C)c3)oc2-c2ccc(Cl)c(F)c2)cc1F` [Compound 83, 1-(5-(4-chloro-3-fluorophenyl)-2-(m-tolyl)oxazol-4-yl)-5-fluoro-4-(methylamino)pyrimidin-2(1H)-one]: the Papp at 4 hr, 200 uM is 40.3 ×10⁻⁶ cm/s (pH 5.0, 200 uM test compound) and greater than 50 ×10⁻⁶ cm/s (pH 7.4, 200 uM test compound).

For the compound `CNC(=O)c1cc2c(C3=CCCC3)nn(-c3ccccc3)c2s1` [Compound 31, 3-(cyclopent-1-en-1-yl)-N-methyl-1-phenyl-1H-thieno[2,3-c]pyrazole-5-carboxamide], the Papp at 4 hr, 200 uM (pH 5.0, 200 uM test compound) was 14.9 ×10⁻⁶ cm/s and the Papp at 4 hr, 200 uM (pH 7.4, 200 uM test compound) worked out at 16.7 ×10⁻⁶ cm/s. Regarding `CNC(=O)c1ncc2c(-c3ccc(F)cc3)nn(Cc3ccccc3)c2n1` [Compound 250], the “PAMPA: P_app” value is, setting by setting: (pH 5.0) greater than 50 ×10e−6 cm/sec; (pH 7.4) greater than 50 ×10e−6 cm/sec.
